Test results as given in patent US20170143748A1, “ANTI-TUMOR PHARMACEUTICAL APPLICATION OF PENTACYCLIC TRITERPENE SAPONIN COMPOUNDS OF SZECHUAN MELANDIUM ROOT” (priority 2014, published 2017).

Legend:
Type in all cases: cell-based, Human
[1] = test system: MCF-7; assay: MTT inhibition of tumor cells in vitro (Example 3); conditions: 40 μg/mL, 48 hours
Procedure: (§1) Human resources tumor cell line […], […], HT29, MCF-7 and A875 were provided by Cancer Hospital, Chinese Academy of Medical Sciences.
(§2) Cells were passaged every 2 or 3 days, and all the experiments were carried out on exponentially growing cells.
(§3) All cells were cultured in a humidified atmosphere (5% CO2 and […]), and passaged every 2 or 3 days. Cells were harvested on exponentially growing phase, and cell suspension was prepared with 2×10^4 cells/mL, added with 100 μL per well of 96-well plates, and cultured for 24 h in incubator. 100 μL medium without cells was added per well as blank group.
(§4) Compound (1), (2), (3), (4), (7) or (8) was dissolved in DMSO respectively, and diluted with 1640 medium at a final concentration of 400 μg/mL, so as to that of the Cisplatin. Cells were divided into 9 groups, they were blank group, model group, Compound (1), (2), (3), (4), (7) and (8) groups, and Cisplatin group as the positive one, 6 wells per group.
(§5) Before drug administration, supernatant of each well was removed and fresh 1640 medium was added, 180 μL per well. Compounds and Cisplatin were added with 20 μL per well respectively at a final concentration of 40 μg/mL. Wells of blank and model groups were added with 0.5% DMSO, 20 μL per well. 48 hours later, 20 μL MTT was added per well and continued to culture for 4 hours, then the supernatant was replaced carefully and DMSO was added with 150 μL per well to end the experiment. The 96-well plates were shaken for 10 mins and read the absorbance at 490 nm. The Inhibition rate was calculated.
(§6) Inhibition rate=[(ODmodel−ODblank)−(ODdrugs−ODblank)]/(ODmodel−ODblank)×100%
(§7) The MTT experiment was repeated three times.

[2] = test system: BGC823; assay: MTT inhibition of tumor cells in vitro (Example 3); conditions: 40 μg/mL, 48 hours
Procedure: as §1, §2, §3, §4, §5, §6, §7

[3] = test system: HT29; assay: MTT inhibition of tumor cells in vitro (Example 3); conditions: 40 μg/mL, 48 hours
Procedure: as §1, §2, §3, §4, §5, §6, §7

[4] = test system: A875; assay: MTT inhibition of tumor cells in vitro (Example 3); conditions: 40 μg/mL, 48 hours
Procedure: as §1, §2, §3, §4, §5, §6, §7

[5] = test system: HepG2; assay: Inhibitory activity and IC50 to HepG2 at different time of treatment (MTT, Example 4); conditions: HepG2, 40 μg/ml
Procedure: Human resources hepatoma cell line HepG2 was provided by Cancer Hospital, Chinese Academy of Medical Sciences. […] Cells were passaged every 2 or 3 days, and all the experiments were carried out on exponentially growing cells.
Cells were harvested in good growth status and cell suspension was prepared with 2×10^4 cells/mL, added 100 μL per well of 96-well plates, and cultured for 24 h in the incubator. 100 μL liquid medium with no cell was added per well as blank group.
3 plates were used as parallel test to culture cells at different period.
Before medication, supernatant of each well was removed and fresh 1640 medium was added, 180 μL per well. […] Wells of blank and model groups were added with 0.5% DMSO, 20 μL per well. After finished adding drugs, cells were incubated for 24 and 48 h respectively. At the end of incubation, 20 μL MTT was added per well […]. The supernatant was removed carefully and 150 μL DMSO was added per well. After shaken for 10 mins, the absorbance was read at 490 nm and the inhibition rate was calculated with the formula below.
as §6
IC50 was calculated with Bliss method.
as §7

[6] = test system: HepG2; assay: MTT inhibition of tumor cells in vitro (Example 3); conditions: 40 μg/mL, 48 hours

Row | Compound | Inhibition rate, MCF-7 [1] [%] | Inhibition rate, BGC823 [2] [%] | Inhibition rate, HT29 [3] [%] | Inhibition rate, A875 [4] [%] | Inhibition rate ([5]; 24 h) [%] | Inhibition rate ([5]; 48 h) [%] | Inhibition rate, HepG2 [6] [%]
1 | N.N.[Cl][Pt][Cl] [Cisplatin, reference compound] | 97.53 ± 2.05 | 97.86 ± 4.12 | 99.04 ± 1.15 | 90.13 ± 1.98 | 47.94 ± 6.328 | 99.45 ± 0.36 | 82.15 ± 4.05
2 | sinocrassuloside VIII [Compound (3)] | 90.12 ± 7.43 | 92.09 ± 1.13 | 56.62 ± 4.24 | 68.35 ± 5.37 | – | – | 74.35 ± 1.51
3 | sinocrassuloside XII [Compound (7)] | 58.12 ± 6.26 | 77.08 ± 5.73 | 62.67 ± 3.12 | 55.64 ± 9.88 | – | – | 21.83 ± 1.53
